We go through 32 compounds from ChEMBL document CHEMBL4706520, “Development of disulfide-derived fructose-1,6-bisphosphatase (FBPase) covalent inhibitors for the treatment of type 2 diabetes” (Eur J Med Chem, 2020).

Series [1] addresses T1, Fructose-1,6-bisphosphatase 1 (Homo sapiens) (UniProt P09467).
T1 sequence (whole entry): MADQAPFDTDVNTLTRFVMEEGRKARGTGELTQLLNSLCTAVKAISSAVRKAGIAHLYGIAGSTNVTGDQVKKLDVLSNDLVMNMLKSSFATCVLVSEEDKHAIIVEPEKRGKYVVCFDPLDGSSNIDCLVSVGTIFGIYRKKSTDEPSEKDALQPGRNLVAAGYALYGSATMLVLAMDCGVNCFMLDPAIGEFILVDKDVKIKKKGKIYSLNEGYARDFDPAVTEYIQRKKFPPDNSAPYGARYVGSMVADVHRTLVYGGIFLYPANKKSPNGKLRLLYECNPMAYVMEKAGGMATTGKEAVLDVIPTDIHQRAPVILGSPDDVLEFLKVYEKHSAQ
In words: Inhibition of wild-type full-length human liver FBPase expressed in Escherichia coli BL21 (DE3) using FBP as substrate at 10 uM by malachite green dye-based assay. The format is single protein.

Series [2] deals with c1csc(SSc2nccs2)n1. The experiment in a line: Covalent inhibition of FBPase C38S mutant (unknown origin) assessed as Vmax measured at 45 mins by UV-visible spectrometry analysis. Particulars: Homo sapiens.
For series [3], the system named is c1csc(SSc2nccs2)n1. The experiment in a line: Covalent inhibition of FBPase C92S mutant (unknown origin) assessed as Vmax measured upto 45 mins by UV-visible spectrometry analysis. As to conditions: Homo sapiens.
In series [4] the test system is c1csc(SSc2nccs2)n1. In words: Covalent inhibition of FBPase C116S mutant (unknown origin) assessed as Vmax measured upto 45 mins by UV-visible spectrometry analysis. Particulars: Homo sapiens.
The test system of series [5] is c1csc(SSc2nccs2)n1. In words: Covalent inhibition of FBPase C128S mutant (unknown origin) assessed as Vmax measured upto 45 mins by UV-visible spectrometry analysis. As to conditions: Homo sapiens; time min <=45.
Series [6] relates to c1csc(SSc2nccs2)n1. In words: Covalent inhibition of FBPase C179S mutant (unknown origin) assessed as Vmax measured upto 45 mins by UV-visible spectrometry analysis. As to conditions: Homo sapiens; time min <=45.
In series [7] the test system is c1csc(SSc2nccs2)n1. The experiment in a line: Covalent inhibition of FBPase C281S mutant (unknown origin) assessed as Vmax measured upto 45 mins by UV-visible spectrometry analysis. Particulars: Homo sapiens; time min <=45.
Series [8] has as its system c1csc(SSc2nccs2)n1. In words: Covalent inhibition of FBPase S124A mutant (unknown origin) assessed as Vmax measured upto 45 mins by UV-visible spectrometry analysis. As to conditions: Homo sapiens; time min <=45.
Series [9] deals with c1csc(SSc2nccs2)n1. The experiment in a line: Covalent inhibition of FBPase N125A mutant (unknown origin) assessed as Vmax measured upto 45 mins by UV-visible spectrometry analysis. As to conditions: Homo sapiens; time min <=45.
Series [10] concerns c1csc(SSc2nccs2)n1. The experiment in a line: Covalent inhibition of FBPase D127A mutant (unknown origin) assessed as Vmax measured upto 45 mins by UV-visible spectrometry analysis. Particulars: Homo sapiens; time min <=45.
In series [11] the test system is c1csc(SSc2nccs2)n1. The experiment in a line: Covalent inhibition of FBPase R243A mutant (unknown origin) assessed as Vmax measured upto 45 mins by UV-visible spectrometry analysis. Particulars: Homo sapiens; time min <=45.
In series [12] the test system is c1csc(SSc2nccs2)n1. In words: Covalent inhibition of FBPase R254A mutant (unknown origin) assessed as Vmax measured upto 45 mins by UV-visible spectrometry analysis. As to conditions: Homo sapiens; time min <=45.
Series [13] concerns c1csc(SSc2nccs2)n1. In words: Covalent inhibition of FBPase Y258A mutant (unknown origin) assessed as Vmax measured upto 45 mins by UV-visible spectrometry analysis. Particulars: Homo sapiens; time min <=45.
In series [14] the test system is c1csc(SSc2nccs2)n1. In words: Covalent inhibition of FBPase C183S (unknown origin) assessed as Vmax measured upto 45 mins. As to conditions: Homo sapiens; time min <=45.
The test system of series [15] is c1csc(SSc2nccs2)n1. The experiment in a line: Covalent inhibition of FBPase C183S (unknown origin) upto 45 mins. As to conditions: Homo sapiens; time min <=45.
The test system of series [16] is Mus musculus. In words: Suppression of blood glucose concentration in 12 hrs fasted ICR mouse model at 12.5 mg/kg, ip measured upto 120 mins after oral administration of glucose at 2 g/kg for 60 min by oral glucose tolerance test. The format is functional, organism-based.
Series [17] has as its system Mus musculus. In words: Suppression of blood glucose concentration in 12 hrs fasted ICR mouse model at 25 mg/kg, ip measured upto 120 mins after oral administration of glucose at 2 g/kg for 60 min by oral glucose tolerance test. The format is functional, organism-based.
Series [18] deals with Mus musculus. The experiment in a line: Suppression of blood glucose concentration in 12 hrs fasted db/db mouse model at 12.5 mg/kg, ip measured upto 120 mins after oral administration of glucose at 2 g/kg for 60 min by oral glucose tolerance test. The format is functional, organism-based.
Series [19] concerns Mus musculus. The experiment in a line: Hypoglycemic activity in 2 hrs fasted db/db mouse model assessed as reduction in blood glucose AUC at 12.5 mg/kg, ip measured upto 120 mins after oral administration of glucose at 2 g/kg for 60 min by oral glucose tolerance test. The format is functional, organism-based.
The subject of series [20] is Mus musculus. The experiment in a line: Hypoglycemic activity in 2 hrs fasted db/db mouse model assessed as reduction in blood glucose AUC at 25 mg/kg, ip measured upto 120 mins after oral administration of glucose at 2 g/kg for 60 min by oral glucose tolerance test. The format is functional, organism-based.
Series [21] is filed under the species Homo sapiens. The experiment in a line: Selectivity index, ratio of IC50 for FBPase S124A mutant IC50 for FBPase WT (unknown origin).
The species named for series [22] is Homo sapiens. In words: Selectivity index, ratio of IC50 for FBPase N125A mutant IC50 for FBPase WT (unknown origin).
The species named for series [23] is Homo sapiens. In words: Selectivity index, ratio of IC50 for FBPase D127A mutant IC50 for FBPase WT (unknown origin).
The species named for series [24] is Homo sapiens. The experiment in a line: Selectivity index, ratio of IC50 for FBPase R243A mutant IC50 for FBPase WT (unknown origin).
For series [25], the species on record is Homo sapiens. In words: Selectivity index, ratio of IC50 for FBPase R254A mutant IC50 for FBPase WT (unknown origin).
For series [26], the species on record is Homo sapiens. The experiment in a line: Selectivity index, ratio of IC50 for FBPase Y258A mutant IC50 for FBPase WT (unknown origin).
For series [27], the species on record is Homo sapiens. In words: Selectivity index, ratio of IC50 for FBPase C38S mutant IC50 for FBPase WT (unknown origin).
Series [28] is filed under the species Homo sapiens. The experiment in a line: Selectivity index, ratio of IC50 for FBPase C92S mutant IC50 for FBPase WT (unknown origin).
Series [29] is filed under the species Homo sapiens. The experiment in a line: Selectivity index, ratio of IC50 for FBPase C116S mutant IC50 for FBPase WT (unknown origin).
Series [30] is filed under the species Homo sapiens. The experiment in a line: Selectivity index, ratio of IC50 for FBPase C128S mutant IC50 for FBPase WT (unknown origin).
The species entered for series [31] is Homo sapiens. In words: Selectivity index, ratio of IC50 for FBPase C179S mutant IC50 for FBPase WT (unknown origin).
The species named for series [32] is Homo sapiens. The experiment in a line: Selectivity index, ratio of IC50 for FBPase C183S mutant IC50 for FBPase WT (unknown origin).
For series [33], the species on record is Homo sapiens. In words: Selectivity index, ratio of IC50 for FBPase WT (unknown origin) to IC50 for FBPase […] mutant IC50 for FBPase WT (unknown origin).
A further series has as its system Hepatocyte. In words: Inhibition of gluconeogenesis in C57BLKS mouse primary hepatocytes assessed as inhibition of glucose output measured after 6 hrs. The format is functional, cell-based. Particulars: dose 0.5-100 µmol/L.
Series [34] concerns the target T1, Fructose-1,6-bisphosphatase 1 (Homo sapiens). The experiment in a line: Covalent binding affinity to FBPase WT (unknown origin) assessed as maximum peak absorption measured upto 45 mins by UV-visible spectroscopy (reference value: 283 nm). As to conditions: time min <=45.

Activity calls are given as the source filed them. No cut-off for these calls is given here.

As usually defined, the inhibition is the share of the control response that was lost under treatment. In turn, `Cn1ccnc1SSc1nccn1C` returned an inhibition in series [1] of 9.65%.

In series [1], `CN(C(=S)SSC(=S)N(C)c1ccc(-c2ccccc2)cc1)c1ccc(-c2ccccc2)cc1` registered an inhibition of 32.4%.

In series [1], `CN(Cc1ccccc1)C(=S)SSC(=S)N(C)Cc1ccccc1` gave an inhibition of 3.09%.

In turn, `S=C(SSC(=S)N1CCC1)N1CCC1` gave an inhibition in [1] of 28.5%.

Turning to `C1CCC(SSC2CCCCC2)CC1`, the inhibition in series [1] stood at 12.4%.

`S=C(SSC(=S)n1c2ccccc2c2ccccc21)n1c2ccccc2c2ccccc21`: the inhibition in series [1] came to 39.7%.

Regarding “Fructose-1,6-bisphosphatase 1 (Homo sapiens) (from UniProt P09467) UNDEFINED MUTATION”, the Vmax in the series on c1csc(SSc2nccs2)n1 [2] was determined as 2.7 U/mg; in the series with c1csc(SSc2nccs2)n1 [3], 1.6 U/mg; in the series on c1csc(SSc2nccs2)n1 [4], 1.6 U/mg; with c1csc(SSc2nccs2)n1 [5], 2.7 U/mg; with c1csc(SSc2nccs2)n1 [6] it was 2.3 U/mg; in the series on c1csc(SSc2nccs2)n1 [7], 3.6 U/mg. The Vmax with c1csc(SSc2nccs2)n1 [8] came to 5 U/mg; in the series on c1csc(SSc2nccs2)n1 [9], 1.5 U/mg; in the series on c1csc(SSc2nccs2)n1 [10], 1.9 U/mg; with c1csc(SSc2nccs2)n1 [11], 2.5 U/mg; in the series with c1csc(SSc2nccs2)n1 [12] it was 3.5 U/mg; in the series with c1csc(SSc2nccs2)n1 [13] it was 5 U/mg. Further, the Vmax in the series with c1csc(SSc2nccs2)n1 [14] was 3.8 U/mg; in the series on c1csc(SSc2nccs2)n1 [15] it was 0.21 U/mg.

In turn, `CCN(CC)C(=S)SC(=S)N(CC)CC` returned an inhibition in series [1] of 18%.

For the compound `COc1ccc2nc(SSc3nc4ccc(OC)cc4s3)sc2c1`, in [1], the inhibition was 44.7%.

As for `CN1CCN(C(=S)SSC(=S)N2CCN(C)CC2)CC1`, the inhibition in series [1] worked out at 26.2%.

With `c1csc(SSC2CCCC2)n1`, in series [1], the inhibition worked out at 34.3%.

The compound `c1csc(SSc2cccs2)c1` came in with an inhibition in [1] of 50.6%.

In turn, `S=C(SSC(=S)N1CCc2ccccc2C1)N1CCc2ccccc2C1` showed an inhibition in series [1] of 38.4%.

Take `c1csc(SSc2nccs2)n1`: the inhibition entry in the series on Mus musculus [16], with Mus musculus [17], in the series on Mus musculus [18], with Mus musculus [19] and with Mus musculus [20] was “Active” throughout. The Ratio IC50 was 1.7 in the series listed under Homo sapiens [21]; more than 926 in the series filed under Homo sapiens [22]; 0.7 in the series listed under Homo sapiens [23]; more than 1 in the series listed under Homo sapiens [24]; 2.3 in the series filed under Homo sapiens [25]; 11.5 in the series listed under Homo sapiens [26]. The Ratio IC50 in the series filed under Homo sapiens [27] was 1.1; in the series listed under Homo sapiens [28], 0.5; in the series listed under Homo sapiens [29], 0.7; in the series listed under Homo sapiens [30], more than 1850; in the series listed under Homo sapiens [31], 0.6; in the series filed under Homo sapiens [32], 0.8. Moreover, in the series listed under Homo sapiens [33], the Ratio IC50 amounted to 0.7. In addition, in the series with Hepatocyte, the inhibition entry is “Dose-dependent effect”. Further, the lambda max in series [34] is 306 nm.

For `CCCN(CCC)C(=S)SSC(=S)N(CCC)CCC`, in [1], the inhibition amounted to 13.6%.

`CCN(CC)C(=S)SCSC(=S)N(CC)CC`: the inhibition in series [1] turned out to be 12.4%.

Regarding `C[C@@H]1CN(C(=S)SSC(=S)N2C[C@@H](C)O[C@@H](C)C2)C[C@H](C)O1`, the inhibition in series [1] came out at 37.7%.

Compound `CC(C)N(C(=S)SSC(=S)N(C(C)C)C(C)C)C(C)C` had an inhibition in series [1] of 47.8%.

`c1ccc(SSc2ccccc2)cc1` registered an inhibition in series [1] of 10.4%.

The compound `S=C(SSC(=S)n1ncc2ccccc21)n1ncc2ccccc21` gave an inhibition in [1] of 47.6%.

In series [1], `O=C(O)C1CCN(C(=S)SSC(=S)N2CCC(C(=O)O)CC2)CC1` displayed an inhibition of 47.6%.

With `Cc1cccn1C(=S)SSC(=S)n1cccc1C`, in [1], the inhibition came to 29.4%.

In [1], `S=C(SSC(=S)N1CCCc2ccccc21)N1CCCc2ccccc21` came in with an inhibition of 9.87%.

As to `S=C(SSC(=S)N1CC2CCCCC2C1)N1CC2CCCCC2C1` (centres undefined), in [1], the inhibition stood at 37.2%.

`Clc1ccc(SSc2ccc(Cl)cc2)cc1` yielded an inhibition in [1] of 18%.

In [1], `CCN(CC)C(=O)SSC(=O)N(CC)CC` returned an inhibition of 2.59%.

The compound `CN(C(=S)SSC(=S)N(C)c1ccccc1)c1ccccc1` returned an inhibition in series [1] of 35.7%.

For the compound `O=[N+]([O-])c1ccc2nc(SSc3nc4ccc([N+](=O)[O-])cc4s3)sc2c1`, the inhibition in series [1] stood at 18.4%.

`S=C(SSC(=S)N1CCOCC1)N1CCOCC1` had an inhibition in series [1] of 26.1%.

In series [1], `S=C(SSC(=S)N1CCc2ccccc21)N1CCc2ccccc21` gave an inhibition of 39.9%.

In series [1], `CCN(CC)C(=S)CSC(=S)N(CC)CC` came in with an inhibition of 21.4%.

With `CCN(CC)C(=O)CSC(=S)N(CC)CC`, the inhibition in series [1] turned out to be 3.22%.
